# Legend:
# [1] = Cytotoxicity against CHL cells; format: cell-based, Cricetulus griseus; conditions: chinese hamster, read-out: LD50 (the source's name)
# [2] = Cytotoxicity against ovarian cancer cells; format: functional; conditions: Cancer cell lines; read-out: ID50 (the source's name)
# Staphylococcus aureus = assay: Antimicrobial activity against Staphylococcus aureus; format: functional
# Bacillus subtilis = assay: Antimicrobial activity against Bacillus subtilis; format: functional
# Penicillium citrinum = assay: Antimicrobial activity against Penicillium citrinum; format: functional
Structure (SMILES),MIC (Staphylococcus aureus),MIC (Bacillus subtilis),other results
C=C/C(C)=C/C[C@@]1(C)[C@@H](C)[C@H](OC(=O)CCCCCCCCC)[C@@H](OC(C)=O)[C@]23C(=C[C@H](O)C[C@@]21C)[C@@H](OC(C)=O)O[C@@H]3OC(C)=O,–,–,CC50 [1]: 770 nM
C=C/C(C)=C/C[C@]1(C)[C@H]2C[C@@H](O)C=C3[C@H](OC(C)=O)O[C@@H](OC(C)=O)[C@@]32[C@H](OC(=O)/C=C/c2ccccc2)C[C@@H]1C,–,–,IC50 [2]: 35 µg/mL
C=C(CC(=O)O)C(=O)C[C@@]1(C)[C@H](C)CC[C@@]2(C)C(C)=CCC[C@H]12,20 µg/mL,25 µg/mL,–
CC(=O)O[C@@H]1[C@H](OC(C)=O)[C@@H](Oc2c(-c3ccc(O)cc3)oc3cc(O)cc(O)c3c2=O)O[C@H](C)[C@H]1OC(=O)/C=C/c1ccc(O)cc1,–,–,MIC (Penicillium citrinum): < 30 µg/mL
CN[C@@H]1[C@H](O[C@H]2[C@H](O[C@H]3[C@H](O)[C@@H](O)[C@H](N=C(N)N)[C@@H](O)[C@@H]3N=C(N)N)O[C@@H](C)[C@]2(O)C=O)O[C@@H](CO)[C@H](O)[C@H]1O.CN[C@@H]1[C@H](O[C@H]2[C@H](O[C@H]3[C@H](O)[C@@H](O)[C@H](N=C(N)N)[C@@H](O)[C@@H]3N=C(N)N)O[C@@H](C)[C@]2(O)C=O)O[C@@H](CO)[C@H](O)[C@H]1O.O=S(=O)(O)O.O=S(=O)(O)O.O=S(=O)(O)O [STREPTOMYCIN SULFATE],6.3 µg/mL,12.5 µg/mL,–
